Data from patent publication US20080200337A1, “Mixed herbicide compositions for paddy field” (Bayer CropScience, priority 2007, published 2008).

How the values were obtained:
Format in all cases: in vivo
[1] = system: submerged direct sown paddy (RD-23); test: Phytotoxicity, spray treatment at 1.5 to 3.0 leaf-stage (Test Example 3); conditions: spray at 1.5 to 3.0 leaf-stage, 4 weeks later, RD-23
Method: (§1) Carrier: 5 parts by weight of acetone
(§2) Surfactant: one part by weight of benzyloxy polyglycol ether.
(§3) Above described carrier and surfactant are mixed with one part by weight of the active compound ((a) ingredient and (b) ingredient) and the resulting preparation is then diluted with water to obtain given amount of the test drug (the formulation).
(§4) In a greenhouse, seeds of rice (var.: Nipponbare and RD23) and weeds (Echinochloa oryzicola Vasing, Echinochloa cruss-galli, Leptochloa chinensis, Cyperus difformis L., Cyperus iria L., annual broad-leaved weeds (Monochoria vaginalis Presl, Lindernia procumbens Philcox, Lindernia dubia L. Penn., Rotala indica Koehne, Elatine triandra Schk, Ammannia multiflora Roxb. and the like)) were sown in a 500 cm^2 pot filled with paddy field soil and covered with soil. Water was added to the pot (a depth of 0 cm) to be a wet condition, and each test plant was grown in the greenhouse to 1.5 to 3.0 leaf-stage, after then a prescribed, diluted solution of the formulation of each active compound and each herbicidal compound in the table were separately or simultaneously sprayed over the pots with plants. At 3 days after the treatment, the water depth of 3 cm was maintained, and 4 weeks later, herbicidal effect was then examined. In the assessment of the herbicidal effect and the phytotoxicity, 100% refers to complete death and 0% refers to no effect or no phytotoxicity.

[2] = system: submerged direct sown paddy (Nipponbare); test: as above; conditions: spray at 1.5 to 3.0 leaf-stage, 4 weeks later
Method: as §1, §2, §3, §4

[3] = system: Monochoria vaginalis Presl; test: Weed control, flooded paddy field, treatment at 1 leaf-stage (Test Example 1); conditions: after 4 weeks
Method: as §1, §2, §3
(§5) In a greenhouse, seeds or tubers of Echinochloa, Scirpus juncoides Roxburgh, Monochoria vaginalis Presl, annual broad-leaved weeds (Lindernia procumbens Philcox, Lindernia dubia L. Penn., Rotala indica Koehne, Elatine triandra Schk, Ammannia multiflora Roxb.), Cyperus serotinus Rottboel and Sagittaria pygmaea Miq. were inoculated in a 500 cm^2 pot filled with paddy field soil. After 2 leaf-stage of rice were transplanted, water was poured to a depth of about 3 cm. At 1.0 leaf-stage of Echinochloa oryzicola Vasing, a prescribed, diluted solution of the formulation of each active compound and each herbicidal compound in the table was separately or simultaneously applied to the surface of water. After the treatment, the water depth of 3 cm was maintained, and herbicidal effect was examined after 4 weeks. In the assessment of the herbicidal effect and the phytotoxicity, 100% refers to complete death and 0% refers to no effect or no phytotoxicity.

[4] = system: annual broad-leaved weeds; test: as above; conditions: after 4 weeks
Method: as §1, §2, §3, §5

[5] = system: Sagittaria pygmaea Miq.; test: as above; conditions: after 4 weeks
Method: as §1, §2, §3, §5

[6] = system: Scirpus juncoides Roxburgh; test: as above; conditions: after 4 weeks
Method: as §1, §2, §3, §5

[7] = system: Cyperus serotinus Rottboel; test: as above; conditions: after 4 weeks
Method: as §1, §2, §3, §5

[8] = system: Echinochloa; test: as above; conditions: after 4 weeks
Method: as §1, §2, §3, §5

[9] = system: Monochoria vaginalis Presl; test: Weed control by spray treatment at 1.5 to 3.0 leaf-stage (Test Example 3); conditions: spray at 1.5 to 3.0 leaf-stage, 4 weeks later
Method: as §1, §2, §3, §4

[10] = system: Leptochloa chinensis; test: as above; conditions: spray at 1.5 to 3.0 leaf-stage, 4 weeks later
Method: as §1, §2, §3, §4

[11] = system: Echinochloa cruss-galli; test: as above; conditions: spray at 1.5 to 3.0 leaf-stage, 4 weeks later
Method: as §1, §2, §3, §4

[12] = system: Cyperus difformis L.; test: as above; conditions: spray at 1.5 to 3.0 leaf-stage, 4 weeks later
Method: as §1, §2, §3, §4

[13] = system: annual broad-leaved weeds; test: as above; conditions: spray at 1.5 to 3.0 leaf-stage, 4 weeks later
Method: as §1, §2, §3, §4

[14] = system: Echinochloa oryzicola Vasing; test: as above; conditions: spray at 1.5 to 3.0 leaf-stage, 4 weeks later
Method: as §1, §2, §3, §4

[15] = system: Cyperus iria L.; test: as above; conditions: spray at 1.5 to 3.0 leaf-stage, 4 weeks later
Method: as §1, §2, §3, §4

[16] = system: Monochoria vaginalis Presl; test: Weed control, flooded paddy field, treatment at 3 leaf-stage (Test Example 2); conditions: after 4 weeks
Method: as §1, §2, §3
as §5, with “Echinochloa, Cyperus difformis L.,” for “Echinochloa,”, “3.0” for “1.0”, “Echinochloa,” for “Echinochloa oryzicola Vasing,”

[17] = system: annual broad-leaved weeds; test: as above; conditions: after 4 weeks
Method: as §1, §2, §3
as §5, with “Echinochloa, Cyperus difformis L.,” for “Echinochloa,”, “3.0” for “1.0”, “Echinochloa,” for “Echinochloa oryzicola Vasing,”

[18] = system: Sagittaria pygmaea Miq.; test: as above; conditions: after 4 weeks
Method: as §1, §2, §3
as §5, with “Echinochloa, Cyperus difformis L.,” for “Echinochloa,”, “3.0” for “1.0”, “Echinochloa,” for “Echinochloa oryzicola Vasing,”

[19] = system: Scirpus juncoides Roxburgh; test: as above; conditions: after 4 weeks
Method: as §1, §2, §3
as §5, with “Echinochloa, Cyperus difformis L.,” for “Echinochloa,”, “3.0” for “1.0”, “Echinochloa,” for “Echinochloa oryzicola Vasing,”

[20] = system: Cyperus serotinus Rottboel; test: as above; conditions: after 4 weeks
Method: as §1, §2, §3
as §5, with “Echinochloa, Cyperus difformis L.,” for “Echinochloa,”, “3.0” for “1.0”, “Echinochloa,” for “Echinochloa oryzicola Vasing,”

[21] = system: Echinochloa; test: as above; conditions: after 4 weeks
Method: as §1, §2, §3
as §5, with “Echinochloa, Cyperus difformis L.,” for “Echinochloa,”, “3.0” for “1.0”, “Echinochloa,” for “Echinochloa oryzicola Vasing,”

[22] = system: transplanted rice; test: Phytotoxicity, flooded paddy field, treatment at 1 leaf-stage (Test Example 1); conditions: treatment at 1 leaf-stage, after 4 weeks
Method: as §1, §2, §3, §5

[23] = system: transplanted rice; test: Phytotoxicity, flooded paddy field, treatment at 3 leaf-stage (Test Example 2); conditions: treatment at 3 leaf-stage, after 4 weeks
Method: as §1, §2, §3
as §5, with “Echinochloa, Cyperus difformis L.,” for “Echinochloa,”, “3.0” for “1.0”, “Echinochloa,” for “Echinochloa oryzicola Vasing,”

COc1nc(OC)nc(C(=O)c2cccc(F)c2N(C)S(=O)(=O)C(F)F)n1 [(a-1)]
Phytotoxicity (%) ORYSW*^2 ([1]; 30 g ai/ha): 5% | Phytotoxicity (%) ORYSW*^2 ([1]; 50 g ai/ha): 10% | Phytotoxicity (%) ORYSW*^1 ([2]; 30 g ai/ha): 5% | Phytotoxicity (%) ORYSW*^1 ([2]; 50 g ai/ha): 10% | Herbicidal effect (%) MOOVP ([3]; 30 g ai/ha): 25% | Herbicidal effect (%) MOOVP ([3]; 50 g ai/ha): 47% | Herbicidal effect (%) BBBBB ([4]; 30 g ai/ha): 25% | Herbicidal effect (%) BBBBB ([4]; 50 g ai/ha): 45% | Herbicidal effect (%) SAGPY ([5]; 30 g ai/ha): 70% | Herbicidal effect (%) SAGPY ([5]; 50 g ai/ha): 90% | Herbicidal effect (%) SCPSS ([6]; 30 g ai/ha): 85% | Herbicidal effect (%) SCPSS ([6]; 50 g ai/ha): 87% | Herbicidal effect (%) CYPSEE ([7]; 30 g ai/ha): 90% | Herbicidal effect (%) CYPSEE ([7]; 50 g ai/ha): 93% | Herbicidal effect (%) ECHSS ([8]; 30 g ai/ha): 93% | Herbicidal effect (%) ECHSS ([8]; 50 g ai/ha): 95% | Herbicidal effect (%) MOOVP ([9]; 30 g ai/ha): 85% | Herbicidal effect (%) MOOVP ([9]; 50 g ai/ha): 85% | Herbicidal effect (%) LEFCH ([10]; 30 g ai/ha): 75% | Herbicidal effect (%) LEFCH ([10]; 50 g ai/ha): 90% | Herbicidal effect (%) ECHCG ([11]; 30 g ai/ha): 100% | Herbicidal effect (%) ECHCG ([11]; 50 g ai/ha): 100% | Herbicidal effect (%) CYPDI ([12]; 30 g ai/ha): 100% | Herbicidal effect (%) CYPDI ([12]; 50 g ai/ha): 100% | Herbicidal effect (%) BBBBB ([13]; 30 g ai/ha): 70% | Herbicidal effect (%) BBBBB ([13]; 50 g ai/ha): 70% | Herbicidal effect (%) ECHOR ([14]; 30 g ai/ha): 100% | Herbicidal effect (%) ECHOR ([14]; 50 g ai/ha): 100% | Herbicidal effect (%) CYPIR ([15]; 30 g ai/ha): 100% | Herbicidal effect (%) CYPIR ([15]; 50 g ai/ha): 100% | Herbicidal effect (%) MOOVP ([16]; 30 g ai/ha): 20% | Herbicidal effect (%) MOOVP ([16]; 50 g ai/ha): 45% | Herbicidal effect (%) BBBBB ([17]; 30 g ai/ha): 21% | Herbicidal effect (%) BBBBB ([17]; 50 g ai/ha): 30% | Herbicidal effect (%) SAGPY ([18]; 30 g ai/ha): 70% | Herbicidal effect (%) SAGPY ([18]; 50 g ai/ha): 73% | Herbicidal effect (%) SCPSS ([19]; 30 g ai/ha): 80% | Herbicidal effect (%) SCPSS ([19]; 50 g ai/ha): 83% | Herbicidal effect (%) CYPSEE ([20]; 30 g ai/ha): 90% | Herbicidal effect (%) CYPSEE ([20]; 50 g ai/ha): 90% | Herbicidal effect (%) ECHSS ([21]; 30 g ai/ha): 90% | Herbicidal effect (%) ECHSS ([21]; 50 g ai/ha): 90% | Phytotoxicity (%) ORYSP ([22]; 30 g ai/ha): 0% | Phytotoxicity (%) ORYSP ([22]; 50 g ai/ha): 0% | Phytotoxicity (%) ORYSP ([23]; 30 g ai/ha): 0% | Phytotoxicity (%) ORYSP ([23]; 50 g ai/ha): 0%

COc1nc(OC)nc(C(O)c2cccc(F)c2N(C)S(=O)(=O)C(F)F)n1 (centres unmarked) [(a-3)]
Phytotoxicity (%) ORYSW*^2 ([1]; 30 g ai/ha): 0% | Phytotoxicity (%) ORYSW*^2 ([1]; 50 g ai/ha): 0% | Phytotoxicity (%) ORYSW*^1 ([2]; 30 g ai/ha): 0% | Phytotoxicity (%) ORYSW*^1 ([2]; 50 g ai/ha): 10% | Herbicidal effect (%) MOOVP ([3]; 30 g ai/ha): 20% | Herbicidal effect (%) MOOVP ([3]; 50 g ai/ha): 40% | Herbicidal effect (%) BBBBB ([4]; 30 g ai/ha): 20% | Herbicidal effect (%) BBBBB ([4]; 50 g ai/ha): 35% | Herbicidal effect (%) SAGPY ([5]; 30 g ai/ha): 70% | Herbicidal effect (%) SAGPY ([5]; 50 g ai/ha): 90% | Herbicidal effect (%) SCPSS ([6]; 30 g ai/ha): 60% | Herbicidal effect (%) SCPSS ([6]; 50 g ai/ha): 60% | Herbicidal effect (%) CYPSEE ([7]; 30 g ai/ha): 90% | Herbicidal effect (%) CYPSEE ([7]; 50 g ai/ha): 90% | Herbicidal effect (%) ECHSS ([8]; 30 g ai/ha): 90% | Herbicidal effect (%) ECHSS ([8]; 50 g ai/ha): 90% | Herbicidal effect (%) MOOVP ([9]; 30 g ai/ha): 65% | Herbicidal effect (%) MOOVP ([9]; 50 g ai/ha): 85% | Herbicidal effect (%) LEFCH ([10]; 30 g ai/ha): 65% | Herbicidal effect (%) LEFCH ([10]; 50 g ai/ha): 80% | Herbicidal effect (%) ECHCG ([11]; 30 g ai/ha): 100% | Herbicidal effect (%) ECHCG ([11]; 50 g ai/ha): 100% | Herbicidal effect (%) CYPDI ([12]; 30 g ai/ha): 100% | Herbicidal effect (%) CYPDI ([12]; 50 g ai/ha): 100% | Herbicidal effect (%) BBBBB ([13]; 30 g ai/ha): 65% | Herbicidal effect (%) BBBBB ([13]; 50 g ai/ha): 85% | Herbicidal effect (%) ECHOR ([14]; 30 g ai/ha): 100% | Herbicidal effect (%) ECHOR ([14]; 50 g ai/ha): 100% | Herbicidal effect (%) CYPIR ([15]; 30 g ai/ha): 100% | Herbicidal effect (%) CYPIR ([15]; 50 g ai/ha): 100% | Herbicidal effect (%) MOOVP ([16]; 30 g ai/ha): 10% | Herbicidal effect (%) MOOVP ([16]; 50 g ai/ha): 13% | Herbicidal effect (%) BBBBB ([17]; 30 g ai/ha): 3% | Herbicidal effect (%) BBBBB ([17]; 50 g ai/ha): 8% | Herbicidal effect (%) SAGPY ([18]; 30 g ai/ha): 70% | Herbicidal effect (%) SAGPY ([18]; 50 g ai/ha): 70% | Herbicidal effect (%) SCPSS ([19]; 30 g ai/ha): 60% | Herbicidal effect (%) SCPSS ([19]; 50 g ai/ha): 60% | Herbicidal effect (%) CYPSEE ([20]; 30 g ai/ha): 90% | Herbicidal effect (%) CYPSEE ([20]; 50 g ai/ha): 90% | Herbicidal effect (%) ECHSS ([21]; 30 g ai/ha): 90% | Herbicidal effect (%) ECHSS ([21]; 50 g ai/ha): 90% | Phytotoxicity (%) ORYSP ([22]; 30 g ai/ha): 0% | Phytotoxicity (%) ORYSP ([22]; 50 g ai/ha): 0% | Phytotoxicity (%) ORYSP ([23]; 30 g ai/ha): 0% | Phytotoxicity (%) ORYSP ([23]; 50 g ai/ha): 0%
